These results are taken from ChEMBL document CHEMBL5543153, “Discovery of a Potent Dual Son of Sevenless 1 (SOS1) and Epidermal Growth Factor Receptor (EGFR) Inhibitor for the Treatment of Prostate Cancer” (J Med Chem, 2024).

The target in experiment [1] is T1, Son of sevenless homolog 1 (Homo sapiens) (UniProt Q07889).
T1 sequence (whole entry): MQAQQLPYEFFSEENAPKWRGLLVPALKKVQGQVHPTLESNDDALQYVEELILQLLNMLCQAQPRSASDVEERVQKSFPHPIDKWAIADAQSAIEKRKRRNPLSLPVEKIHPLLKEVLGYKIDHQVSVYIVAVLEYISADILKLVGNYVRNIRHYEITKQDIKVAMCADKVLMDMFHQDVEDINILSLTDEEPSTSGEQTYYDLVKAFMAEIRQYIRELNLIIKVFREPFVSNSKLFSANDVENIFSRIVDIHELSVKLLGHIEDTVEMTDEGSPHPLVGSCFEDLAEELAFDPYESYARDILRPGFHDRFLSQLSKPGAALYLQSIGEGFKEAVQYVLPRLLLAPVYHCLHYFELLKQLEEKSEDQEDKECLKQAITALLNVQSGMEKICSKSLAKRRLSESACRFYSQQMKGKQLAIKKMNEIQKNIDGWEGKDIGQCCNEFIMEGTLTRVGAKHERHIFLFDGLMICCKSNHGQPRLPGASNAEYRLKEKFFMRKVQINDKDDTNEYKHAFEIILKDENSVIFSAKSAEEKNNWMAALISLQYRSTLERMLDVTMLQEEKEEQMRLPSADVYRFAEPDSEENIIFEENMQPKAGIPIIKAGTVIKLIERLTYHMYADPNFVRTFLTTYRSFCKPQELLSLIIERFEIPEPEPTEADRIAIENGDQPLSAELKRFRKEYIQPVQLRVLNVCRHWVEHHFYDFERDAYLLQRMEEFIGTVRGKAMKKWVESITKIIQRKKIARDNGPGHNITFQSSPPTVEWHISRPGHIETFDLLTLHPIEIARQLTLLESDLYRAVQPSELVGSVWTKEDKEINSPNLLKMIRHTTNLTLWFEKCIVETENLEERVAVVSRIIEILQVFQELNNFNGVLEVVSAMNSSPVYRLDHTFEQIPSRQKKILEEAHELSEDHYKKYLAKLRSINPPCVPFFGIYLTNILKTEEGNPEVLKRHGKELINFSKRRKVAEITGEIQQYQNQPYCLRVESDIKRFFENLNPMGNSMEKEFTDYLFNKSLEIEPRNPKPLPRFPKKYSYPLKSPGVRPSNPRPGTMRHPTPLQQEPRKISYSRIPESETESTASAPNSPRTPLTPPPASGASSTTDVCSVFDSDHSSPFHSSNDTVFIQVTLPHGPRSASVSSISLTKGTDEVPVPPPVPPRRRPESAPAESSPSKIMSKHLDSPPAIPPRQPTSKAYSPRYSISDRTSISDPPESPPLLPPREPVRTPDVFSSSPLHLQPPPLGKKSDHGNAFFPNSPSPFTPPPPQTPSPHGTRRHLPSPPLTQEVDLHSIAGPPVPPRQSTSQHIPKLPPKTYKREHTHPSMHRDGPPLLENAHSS
Nature of the experiment: Inhibition of human recombinant SOS1 at 10 uM relative to control.

Experiment [2] has as its target Epidermal growth factor receptor (Homo sapiens, UniProt P00533). Nature of the experiment: Inhibition of EGFR (unknown origin) using ultra ULight GT peptide as substrate at 10 uM incubated for 2 hrs relative to control.
In experiment [3] the test system is PC-3. Nature of the experiment: cells. Type of experiment: functional, cell-based. The conditions noted are these: Homo sapiens, PC-3, 72 h.
Description: Antiproliferative activity against human PC-3 cells assessed as inhibition of cell growth incubated for 72 hrs by MTT assay
Experiment [4] deals with PC-3. Nature of the experiment: cells. To be noted: Homo sapiens, PC-3, 72 h.
Description: Synergistic antiproliferative activity against human PC-3 cells assessed as inhibition of cell growth incubated for 72 hrs in presence of gefitinib by MTT assay

Active and inactive are the calls of the source. The rule behind the calls is not given here.

Chain of Epidermal growth factor receptor (P00533 whole entry): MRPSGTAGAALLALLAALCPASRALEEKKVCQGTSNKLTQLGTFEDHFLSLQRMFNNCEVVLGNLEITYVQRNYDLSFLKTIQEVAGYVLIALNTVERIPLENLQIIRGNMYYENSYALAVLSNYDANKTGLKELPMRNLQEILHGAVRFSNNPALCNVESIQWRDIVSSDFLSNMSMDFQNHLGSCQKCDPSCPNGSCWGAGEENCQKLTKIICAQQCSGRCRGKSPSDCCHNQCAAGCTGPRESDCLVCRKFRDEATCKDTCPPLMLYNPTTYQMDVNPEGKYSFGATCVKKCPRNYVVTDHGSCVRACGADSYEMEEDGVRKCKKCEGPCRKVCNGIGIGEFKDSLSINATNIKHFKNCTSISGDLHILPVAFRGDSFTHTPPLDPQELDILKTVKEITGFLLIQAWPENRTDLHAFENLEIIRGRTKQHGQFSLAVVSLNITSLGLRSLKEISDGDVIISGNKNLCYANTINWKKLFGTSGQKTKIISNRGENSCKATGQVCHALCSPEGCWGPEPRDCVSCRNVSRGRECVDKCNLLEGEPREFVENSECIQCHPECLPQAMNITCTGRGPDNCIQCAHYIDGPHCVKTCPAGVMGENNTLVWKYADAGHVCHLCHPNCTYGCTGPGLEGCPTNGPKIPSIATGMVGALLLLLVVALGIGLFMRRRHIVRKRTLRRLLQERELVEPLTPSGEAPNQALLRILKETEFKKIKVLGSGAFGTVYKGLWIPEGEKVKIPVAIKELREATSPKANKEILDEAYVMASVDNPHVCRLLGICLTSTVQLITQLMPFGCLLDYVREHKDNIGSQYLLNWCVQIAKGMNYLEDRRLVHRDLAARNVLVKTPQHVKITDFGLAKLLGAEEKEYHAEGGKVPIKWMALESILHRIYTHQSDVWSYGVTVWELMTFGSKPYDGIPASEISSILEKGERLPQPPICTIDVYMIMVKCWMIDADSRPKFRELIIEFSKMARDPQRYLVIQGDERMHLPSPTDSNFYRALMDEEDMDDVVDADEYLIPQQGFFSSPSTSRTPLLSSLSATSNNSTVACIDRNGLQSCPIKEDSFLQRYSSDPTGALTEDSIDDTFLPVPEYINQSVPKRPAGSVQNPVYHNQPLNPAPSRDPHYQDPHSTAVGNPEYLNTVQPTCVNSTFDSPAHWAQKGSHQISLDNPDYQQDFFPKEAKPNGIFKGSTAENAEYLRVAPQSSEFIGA

With `COc1cc2ncnc(NCc3ccccc3C(F)(F)F)c2cc1OC`, the inhibition in experiment [1] turned out to be 43%; in experiment [2], 90%.

As for `CCc1cc2c(Nc3ccc(OC)cc3)ncnc2s1`, the inhibition entry in experiment [1] is “inactive”. The inhibition in experiment [2] was 64%.

On to `Cc1sc2ncnc(Nc3ccc(F)cc3)c2c1C`, for which the inhibition result in experiment [1] is “inactive”. The compound also gave an inhibition in experiment [2] of 62%.

Consider `CCc1cc2c(Nc3ccc(Cl)cc3)ncnc2s1`, for which, in experiment [1], the inhibition result is “inactive”. In experiment [2], the inhibition was found to be 66%.

Regarding `Clc1cccc(Nc2ncnc3sc4c(c23)CCCC4)c1`, the inhibition result in experiment [1] was “inactive”. This compound also gave an inhibition in experiment [2] of 74%.

Consider `COc1cc2ncnc(NCc3cccc(Cl)c3)c2cc1OC`, for which the results for the inhibition in experiment [1] and in experiment [2] were 56% and 95%, respectively.

As for `Cc1cccc(Nc2ncnc3c2cnn3C)c1`, the inhibition result in experiment [1] was “inactive”. The same compound registered an inhibition in experiment [2] of 73%.

Regarding `COc1cc2nc(C)nc(N[C@H](C)c3cc(N)cc(C(F)(F)F)c3)c2cc1O[C@H]1CCOC1`, the IC50 in the experiment on PC-3 [3] stood at 8.75 µM; in the experiment on PC-3 [4] it was 1.37 µM.

As for `COc1cc2ncnc(NCc3ccc4c(c3)OCO4)c2cc1OC`, the figures for the inhibition in experiment [1] and in experiment [2] were 41% and 92%, respectively.

In the case of `c1ccc(Nc2ncnc3sc4c(c23)CCC4)cc1`, the inhibition result in experiment [1] was “inactive”. This compound displayed an inhibition in experiment [2] of 70%.

Turning to `c1ccc2c(Nc3ccc4c(c3)OCO4)ncnc2c1`, the inhibition result in experiment [1] was “inactive”. Also, in experiment [2], the inhibition was found to be 91%.

Turning to `Clc1ccc(CNc2ncnc3ccccc23)cc1`, the inhibition is 47% in experiment [1] and 84% in experiment [2].
